In patent US7901716B2, “Active fraction having anti-cancer and anti-metastasis isolated from leaves and stems of ginseng” (MD Bioalpha Co., Ltd., priority 2002, dated 2011):

Procedure: In the present experiment, the number of immune cells was measured in co-administration of MB40100, which was expected to reduce the immune inhibition occurring with administration of cyclophosphamide.
24 hours and 48 hours after administration of cyclophosphamide (250 mg/kg), MB40100 was abdominally administered in mice at the different dosages (10 mg/kg, 20 mg/kg), respectively. After 7 days, the mice were killed to separate bone marrow cells and splenocytes, and then the number of these cells was counted pursuant to the tryphan blue exclusion method.
Peripheral blood was rapidly gathered from the eyeball distal vein using a heparin-treated capillary glass tube and collected in a K3-EDTA-treated blood-gathering tube, then examined it with an automatic globule analyzer.

In the case of `O=P1(N(CCCl)CCCl)NCCCO1` (stereo not drawn) [cyclophosphamide], the “reduction of number of WBC compared with normal mouse” value (cyclophosphamide 250 mg/kg alone) is reported as “about 30%”, the “number of WBC in blood” value (cyclophosphamide 250 mg/kg alone, normal mouse 7800) is reported as 5300 and the “number of splenocytes less than normal mouse” value (cyclophosphamide alone) is reported as “about 72.8%”. The “decrease of bone marrow cell density versus normal mouse” value (cyclophosphamide alone, 7 days after) was 29.2%, the “bone marrow cell density” value (cyclophosphamide alone, 7 days after, normal mouse 41.1×10^6) was 29.6×10^6 cells/ml and the “number of thrombocytes less than normal mouse” value (cyclophosphamide alone, peripheral blood) was “about 56%”.
